The results in this text go back to patent US12662475B2, “Difluorocyclohexyl derivatives as IL-17 modulators” (UCB BIOPHARMA SRL, priority 2020, dated 2026).

This test relates to IL-17 induced IL-6 release from human dermal fibroblasts. Nature of the test: Inhibition of IL-17A induced IL-6 release from dermal fibroblast cell line (HDF cell line assay). Format: cell-based. The conditions noted are these: Incubation Time 5 h. On the procedure:
Inhibition of IL-17A Induced IL-6 Release from Dermal Fibroblast Cell Line
The purpose of this assay is to test the neutralising ability to IL-17 proteins, in a human primary cell system.
The resultant IL-6 response was then measured using a homogenous time-resolved FRET kit from Cisbio. The kit utilises two monoclonal antibodies, one labelled with Eu-Cryptate (Donor) and the second with d2 or XL665 (Acceptor).
The ability of a compound to inhibit IL-17 induced IL-6 release from human dermal fibroblasts is measured in this assay.
The TrypLE was neutralised using complete medium (45 mL) and the cells were centrifuged at 300×g for 3 minutes. […] The cells were left for a minimum of three hours, at 37° C./5% CO2, to adhere to the plate.
10 μL from the aqueous dilution plate was transferred to the reagent plate containing 30 μL of the diluted cytokines, to give a 2.5% DMSO solution. The compounds were incubated with the cytokine mixtures for 1 h or 5 h at 37° C. After the incubation, 10 μL was transferred to the assay plate, to give a […] solution, then incubated for 18-20 h at 37° C./5% CO2.
The compound `Cc1nonc1C(=O)N[C@H](c1nc2c(F)c(C(CC(F)F)C(=O)N[C@@H](C)C(F)(F)F)ccc2[nH]1)C1CCC(F)(F)CC1` (mixture of isomers) [Example 43, N—{(S)-(4,4-Difluorocyclohexyl)[5-(3,3-difluoro-1-{[(1S)-2,2,2-trifluoro-1-methylethyl]-carbamoyl}propyl)-4-fluoro-1H-benzimidazol-2-yl]methyl}-4-methyl-1,2,5-oxadiazole-3-carboxamide] gave an IC50 of 0.0501 µM. This lies in the double-digit nanomolar range.
For `CC(C)n1ncnc1C(=O)N[C@H](c1nc2c(F)c([C@H](CC(F)(F)F)C(=O)NCC(C)(C)F)ccc2[nH]1)C1CCC(F)(F)CC1` (single isomer, unassigned) [Example 73] the value was 0.00631 µM; for `Cc1nonc1C(=O)N[C@H](c1nc2c(F)c([C@H](CC(F)F)C(=O)N[C@H](C)C(F)(F)F)ccc2[nH]1)C1CCC(F)(F)CC1` (single isomer, unassigned) [Example 47], 0.158 µM.
In turn, `O=C(N[C@H](c1nc2c(F)c(C(CC(F)F)C(=O)NCC(F)(F)F)ccc2[nH]1)C1CCC(F)(F)CC1)c1ccccc1F` (mixture of isomers) [Example 49, N—[(S)-(4,4-Difluorocyclohexyl){5-[3,3-difluoro-1-(2,2,2-trifluoroethylcarbamoyl)-propyl]-4-fluoro-1H-benzimidazol-2-yl}methyl]-2-fluorobenzamide] gave an IC50 of 0.0316 µM.
For `CC(F)(F)CNC(=O)C(CC(F)(F)F)c1ccc2[nH]c([C@@H](NC(=O)C3(F)CC3)C3CCC(F)(F)CC3)nc2c1F` (mixture of isomers) [Example 82, N—[(S)-(4,4-Difluorocyclohexyl){5-[1-(2,2-difluoropropylcarbamoyl)-3,3,3-trifluoro-propyl]-4-fluoro-1H-benzimidazol-2-yl}methyl]-1-fluorocyclopropanecarboxamide] the value was 0.0251 µM.
For `CC(C)(F)CNC(=O)[C@@H](CC(F)(F)F)c1ccc2[nH]c([C@@H](NC(=O)c3nonc3C3CC3)C3CCC(F)(F)CC3)nc2c1F` (single isomer, unassigned) [Example 64] the value was 0.002 µM; for `CC(C)n1ncnc1C(=O)N[C@H](c1nc2c(F)c([C@@H](CC(F)F)C(=O)NCC(C)(C)F)ccc2[nH]1)C1CCC(F)(F)CC1` (single isomer, unassigned) [Example 57], 2.51 µM.
For `CCS(=O)(=O)CC[C@H](C(=O)N1CC(F)(F)C(F)(F)C1)c1ccc2[nH]c([C@@H](NC(=O)c3nonc3C)C3CCC(F)(F)CC3)nc2c1F` (single isomer, unassigned) [Example 28] the value was 0.00316 µM; for `CC(C)n1ncnc1C(=O)N[C@H](c1nc2c(F)c([C@H](CC(C)(F)F)C(=O)NCC(C)(F)F)ccc2[nH]1)C1CCC(F)(F)CC1` (mixture of isomers) [Example 85, N—[(S)-(4,4-Difluorocyclohexyl){5-[1-(2,2-difluoropropylcarbamoyl)-3,3-difluorobutyl]-4-fluoro-1H-benzimidazol-2-yl}methyl]-2-isopropyl-1,2,4-triazole-3-carboxamide], 0.0126 µM; for `CC(C)n1ncnc1C(=O)N[C@H](c1nc2nc(C3(C(=O)NCC(F)(F)F)CCC(F)(F)CC3)ccc2[nH]1)C1CCC(F)(F)CC1` [Example 77, N—[(S)-(4,4-Difluorocyclohexyl){5-[4,4-difluoro-1-(2,2,2-trifluoroethylcarbamoyl)-cyclohexyl]-1H-imidazo[4,5-b]pyridin-2-yl}methyl]-2-isopropyl-1,2,4-triazole-3-carboxamide], 0.0126 µM.
For `Cc1nonc1C(=O)N[C@H](c1nc2c(F)c([C@H](CC(F)(F)F)C(=O)NCC(F)(F)F)ccc2[nH]1)C1CCC(F)(F)CC1` (single isomer, unassigned) [Example 34], the IC50 was 0.00251 µM.
Turning to `CC(C)n1ncnc1C(=O)N[C@H](c1nc2c(F)c(C(CC(F)F)C(=O)NCC(C)(F)F)ccc2[nH]1)C1CCC(F)(F)CC1` (mixture of isomers) [Example 53, N—[(S)-(4,4-Difluorocyclohexyl){5-[1-(2,2-difluoropropylcarbamoyl)-3,3-difluoropropyl]-4-fluoro-1H-benzimidazol-2-yl}methyl]-2-isopropyl-1,2,4-triazole-3-carboxamide], 0.0631 µM corresponded to half-maximal inhibition (IC50).
Take `Cc1nonc1C(=O)N[C@H](c1nc2c(F)c([C@@H](CC(F)(F)F)C(=O)N[C@@H](C)C(F)(F)F)ccc2[nH]1)C1CCC(F)(F)CC1` (single isomer, unassigned) [Example 26]: the half-maximal inhibitory concentration (IC50) is 0.126 µM.
Under `CC(C)n1ncnc1C(=O)N[C@H](c1nc2c(F)c([C@@H](CC(F)F)C(=O)NCC(C)(F)F)ccc2[nH]1)C1CCC(F)(F)CC1` (single isomer, unassigned) [Example 54] stands 0.0794 µM; under `Cc1nonc1C(=O)N[C@H](c1nc2c(F)c([C@H](CC(F)(F)F)C(=O)N[C@@H](C)C(F)(F)F)ccc2[nH]1)C1CCC(F)(F)CC1` (single isomer, unassigned) [Example 25], 0.00794 µM.
Take `Cc1nonc1C(=O)N[C@H](c1nc2c(F)c([C@H](CC(F)(F)F)C(=O)N[C@@H](C(=O)N(C)C)C(C)C)ccc2[nH]1)C1CCC(F)(F)CC1` (single isomer, unassigned) [Example 11]: it took 0.00398 µM to reach half-maximal inhibition (IC50).
Under `Cc1nonc1C(=O)N[C@H](c1nc2c(F)c([C@H](CC(F)F)C(=O)N[C@@H](C)C(F)(F)F)ccc2[nH]1)C1CCC(F)(F)CC1` (single isomer, unassigned) [Example 44] stands 0.01 µM; under `CC(C)n1ncnc1C(=O)N[C@H](c1nc2c(F)c([C@@H](CC(F)(F)F)C(=O)NCC(C)(C)F)ccc2[nH]1)C1CCC(F)(F)CC1` (single isomer, unassigned) [Example 72], 1.58 µM; under `Cc1nonc1C(=O)N[C@H](c1nc2c(F)c([C@H](CC(F)F)C(=O)NCC(F)(F)F)ccc2[nH]1)C1CCC(F)(F)CC1` (single isomer, unassigned) [Example 41], 0.00501 µM.
Under `Cc1nonc1C(=O)N[C@H](c1nc2c(F)c([C@@H](CC(F)F)C(=O)NCC(F)(F)F)ccc2[nH]1)C1CCC(F)(F)CC1` (single isomer, unassigned) [Example 42] stands 0.126 µM; under `Cc1nonc1C(=O)N[C@H](c1nc2c(F)c([C@@H](CC(F)(F)F)C(=O)NCC(F)(F)F)ccc2[nH]1)C1CCC(F)(F)CC1` (single isomer, unassigned) [Example 35], 0.631 µM.
Under `CC(C)n1ncnc1C(=O)N[C@H](c1nc2c(F)c([C@H](CC(C)(F)F)C(=O)NCC(C)(C)F)ccc2[nH]1)C1CCC(F)(F)CC1` [Example 79, N—[(S)-(4,4-Difluorocyclohexyl)(5-{(1S)-3,3-difluoro-1-[(2-fluoro-2-methylpropyl)-carbamoyl]butyl}-4-fluoro-1H-benzimidazol-2-yl)methyl]-2-isopropyl-1,2,4-triazole-3-carboxamide] stands 0.00794 µM; under `CCS(=O)(=O)CC[C@@H](C(=O)N1CC(F)(F)C(F)(F)C1)c1ccc2[nH]c([C@@H](NC(=O)c3nonc3C)C3CCC(F)(F)CC3)nc2c1F` (single isomer, unassigned) [Example 29], 0.126 µM; under `CC(C)n1ncnc1C(=O)N[C@H](c1nc2c(F)c([C@@H](CC(F)(F)F)C(=O)NCC(C)(F)F)ccc2[nH]1)C1CCC(F)(F)CC1` (single isomer, unassigned) [Example 69], 2.51 µM.
Compound `Cc1nonc1C(=O)N[C@H](c1nc2c(F)c(C(CC(F)F)C(=O)NC(C3CC3)C(F)(F)F)ccc2[nH]1)C1CCC(F)(F)CC1` (stereo partly drawn) [Example 52, N—[(S)-(5-{1-[(1-Cyclopropyl-2,2,2-trifluoroethyl)carbamoyl]-3,3-difluoropropyl}-4-fluoro-1H-benzimidazol-2-yl)(4,4-difluorocyclohexyl)methyl]-4-methyl-1,2,5-oxadiazole-3-carboxamide] had a concentration for half-maximal inhibition (IC50) of 0.00501 µM.
For `Cc1nonc1C(=O)N[C@H](c1nc2c(F)c(C(CC(F)(F)F)C(=O)NCC(F)(F)F)ccc2[nH]1)C1CCC(F)(F)CC1` (mixture of isomers) [Example 33, N—[(S)-(4,4-Difluorocyclohexyl){4-fluoro-5-[3,3,3-trifluoro-1-(2,2,2-trifluoroethyl-carbamoyl)propyl]-1H-benzimidazol-2-yl}methyl]-4-methyl-1,2,5-oxadiazole-3-carboxamide] the value was 0.00398 µM; for `Cc1nonc1C(=O)N[C@H](c1nc2c(F)c(C(CC(F)(F)F)C(=O)N[C@@H](C)C(F)(F)F)ccc2[nH]1)C1CCC(F)(F)CC1` (mixture of isomers) [Example 15, N—{(S)-(4,4-Difluorocyclohexyl)[4-fluoro-5-(3,3,3-trifluoro-1-{[(1S)-2,2,2-trifluoro-1-methylethyl]carbamoyl}propyl)-1H-benzimidazol-2-yl]methyl}-4-methyl-1,2,5-oxadiazole-3-carboxamide], 0.02 µM.
For `Cc1nonc1C(=O)N[C@H](c1nc2c(F)c(C(CC(F)F)C(=O)NCC(F)(F)F)ccc2[nH]1)C1CCC(F)(F)CC1` (mixture of isomers) [Example 40, N—[(S)-(4,4-Difluorocyclohexyl){5-[3,3-difluoro-1-(2,2,2-trifluoroethylcarbamoyl)-propyl]-4-fluoro-1H-benzimidazol-2-yl}methyl]-4-methyl-1,2,5-oxadiazole-3-carboxamide] the value was 0.00794 µM; for `O=C(N[C@H](c1nc2c(F)c([C@@H](CC(F)F)C(=O)NCC(F)(F)F)ccc2[nH]1)C1CCC(F)(F)CC1)c1ccccc1F` (single isomer, unassigned) [Example 51], 1.58 µM.

Usually IC50 stands for the concentration that inhibits the measured activity by half.
